Assay results: patent US20210038607A1, “OXADIAZOLYLTHIOPHENE DERIVATIVES USEFUL AS HISTONE DEACETYLASE INHIBITORS” (Karus Therapeutics Limited, priority 2018, published 2021)

Assays:
[1] = target: T1, Human HDAC8 (Homo sapiens, UniProt Q9BY41); assay: HDAC8 biochemical assay, AMC-labeled peptide substrate; details: read-out: HDAC Isoform IC50 (nM) 8
T1 construct: full length with C-terminal His tag, MW=42.6 kDa; His (C); host or cells: baculovirus expression system
T1 sequence (Q9BY41 1-377): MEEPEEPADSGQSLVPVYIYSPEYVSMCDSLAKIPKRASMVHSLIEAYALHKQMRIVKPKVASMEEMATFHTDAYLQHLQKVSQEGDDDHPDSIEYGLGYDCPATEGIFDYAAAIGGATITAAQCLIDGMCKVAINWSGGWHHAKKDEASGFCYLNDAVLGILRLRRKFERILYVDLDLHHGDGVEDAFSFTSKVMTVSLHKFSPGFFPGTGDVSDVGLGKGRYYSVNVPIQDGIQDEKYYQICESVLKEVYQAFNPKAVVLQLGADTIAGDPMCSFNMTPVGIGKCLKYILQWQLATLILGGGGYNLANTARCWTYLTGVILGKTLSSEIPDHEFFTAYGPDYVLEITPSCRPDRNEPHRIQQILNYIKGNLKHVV
Outline: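 Full-length human HDAC8 with C-terminal His tag, baculovirus-expressed, 1 ng/ul, with 100 µM RHK(Ac)K(Ac)AMC substrate in Tris-HCl pH8.0 buffer with BSA, 1% DMSO. Incubated 2 h at 30° C, then developer added to cleave deacetylated substrate; fluorescence read at 360/460 Ex/Em.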

[2] = target: T2, Human HDAC5 (Homo sapiens, UniProt Q9UQL6); assay: HDAC5 biochemical assay, class IIa-specific substrate; details: read-out: HDAC Isoform IC50 (nM) 5
T2 construct: full length with C-terminal His tag, MW=51.1 kDa; His (C); host or cells: baculovirus expression system
Outline: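 Full-length C-terminal His-tagged HDAC5 from baculovirus (0.05 ng/ul) incubated 30 min at room temperature with 50 μM Boc-Lys(trifluoroacetyl)-AMC and compound, Tris pH 8.0 buffer with BSA, 1% DMSO. Developer then releases AMC; fluorescence 360/460 nm.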

[3] = target: T3, Human HDAC7 (Homo sapiens, UniProt Q8WUI4); assay: HDAC7 biochemical assay, class IIa-specific substrate; details: read-out: HDAC Isoform IC50 (nM) 7
T3 construct: (a.a. 518-end) with N-terminal GST tag; GST (N); host or cells: baculovirus expression system
T3 sequence (Q8WUI4 518-952 limits assumed): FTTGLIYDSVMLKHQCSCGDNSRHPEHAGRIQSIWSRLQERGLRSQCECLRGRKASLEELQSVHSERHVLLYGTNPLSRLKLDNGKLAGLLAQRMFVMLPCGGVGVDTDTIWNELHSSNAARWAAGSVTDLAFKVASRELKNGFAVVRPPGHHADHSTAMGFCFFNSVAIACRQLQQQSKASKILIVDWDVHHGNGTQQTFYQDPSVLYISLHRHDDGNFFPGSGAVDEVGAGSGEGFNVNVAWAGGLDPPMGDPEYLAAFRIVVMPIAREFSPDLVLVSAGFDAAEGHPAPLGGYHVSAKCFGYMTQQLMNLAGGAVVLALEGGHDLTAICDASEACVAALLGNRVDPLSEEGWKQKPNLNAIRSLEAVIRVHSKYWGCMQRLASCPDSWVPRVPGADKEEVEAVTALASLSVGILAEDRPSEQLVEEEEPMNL
Outline: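 GST-tagged HDAC7 (a.a. 518-end, baculovirus-expressed) at 0.001 ng/ul with 50 μM Boc-Lys(trifluoroacetyl)-AMC substrate, 30 min at room temperature in pH 8.0 Tris buffer with BSA, 1% DMSO final. Developer then releases AMC; fluorescence read at 360/460 nm.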

[4] = target: T4, Human HDAC9 (Homo sapiens, UniProt Q9UKV0); assay: HDAC9 biochemical assay, class IIa-specific substrate; details: read-out: HDAC Isoform IC50 (nM) 9
T4 construct: amino acids 604-1066 with C-terminal His tag; His (C); host or cells: baculovirus expression system
Outline: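 HDAC9 residues 604-1066 (C-terminal His tag, baculovirus-expressed) at 0.06 ng/ul with 50 μM class IIa substrate Boc-Lys(trifluoroacetyl)-AMC in Tris-HCl pH 8.0 buffer with BSA and 1% DMSO. 30 min at room temperature, then developer added; fluorescence read at 360/460 nm Ex/Em.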

[5] = target: T5, Human HDAC4 (Homo sapiens, UniProt P56524); assay: HDAC4 biochemical assay, class IIa-specific substrate; details: read-out: HDAC Isoform IC50 (nM) 4
T5 construct: amino acids 627-1085 with N-terminal GST tag; GST (N); host or cells: baculovirus expression system
Outline: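 GST-tagged human HDAC4 (aa 627-1085, baculovirus) at 0.004 ng/ul was incubated 30 min at room temperature with 50 μM class IIa-specific substrate BOC-Lys(trifluoroacetyl)-AMC in Tris-HCl pH 8.0 buffer with BSA, 1% DMSO. Developer then released AMC, read at 360/460 nm.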

T4 sequence (Q9UKV0 604-1066 isoform Q9UKV0-5): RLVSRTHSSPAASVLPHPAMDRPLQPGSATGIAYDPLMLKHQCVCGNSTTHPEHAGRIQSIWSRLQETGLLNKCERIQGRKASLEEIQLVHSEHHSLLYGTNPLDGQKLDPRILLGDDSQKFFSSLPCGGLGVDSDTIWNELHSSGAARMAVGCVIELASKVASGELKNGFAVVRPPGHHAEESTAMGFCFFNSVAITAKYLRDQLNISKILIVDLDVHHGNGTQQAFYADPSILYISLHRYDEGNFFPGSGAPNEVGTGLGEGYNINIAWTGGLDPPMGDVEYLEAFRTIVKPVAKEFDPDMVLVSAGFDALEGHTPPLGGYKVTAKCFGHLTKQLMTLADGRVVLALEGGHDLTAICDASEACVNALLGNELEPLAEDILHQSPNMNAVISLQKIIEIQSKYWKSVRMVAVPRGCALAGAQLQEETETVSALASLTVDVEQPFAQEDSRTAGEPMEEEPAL
T5 sequence (P56524 627-1084 limits assumed): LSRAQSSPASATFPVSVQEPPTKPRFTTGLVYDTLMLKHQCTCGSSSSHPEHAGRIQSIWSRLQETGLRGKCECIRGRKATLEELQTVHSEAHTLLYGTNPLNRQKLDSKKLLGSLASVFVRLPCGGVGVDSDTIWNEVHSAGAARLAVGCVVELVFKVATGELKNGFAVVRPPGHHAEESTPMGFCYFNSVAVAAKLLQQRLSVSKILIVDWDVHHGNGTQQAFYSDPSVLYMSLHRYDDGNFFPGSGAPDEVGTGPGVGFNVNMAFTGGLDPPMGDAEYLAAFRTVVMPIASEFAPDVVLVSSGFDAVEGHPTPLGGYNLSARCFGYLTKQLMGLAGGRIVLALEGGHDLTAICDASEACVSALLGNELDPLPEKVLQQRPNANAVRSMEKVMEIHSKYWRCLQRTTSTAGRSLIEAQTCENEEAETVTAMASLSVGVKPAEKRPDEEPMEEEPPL
T2 sequence (Q9UQL6 656-1122 limits assumed): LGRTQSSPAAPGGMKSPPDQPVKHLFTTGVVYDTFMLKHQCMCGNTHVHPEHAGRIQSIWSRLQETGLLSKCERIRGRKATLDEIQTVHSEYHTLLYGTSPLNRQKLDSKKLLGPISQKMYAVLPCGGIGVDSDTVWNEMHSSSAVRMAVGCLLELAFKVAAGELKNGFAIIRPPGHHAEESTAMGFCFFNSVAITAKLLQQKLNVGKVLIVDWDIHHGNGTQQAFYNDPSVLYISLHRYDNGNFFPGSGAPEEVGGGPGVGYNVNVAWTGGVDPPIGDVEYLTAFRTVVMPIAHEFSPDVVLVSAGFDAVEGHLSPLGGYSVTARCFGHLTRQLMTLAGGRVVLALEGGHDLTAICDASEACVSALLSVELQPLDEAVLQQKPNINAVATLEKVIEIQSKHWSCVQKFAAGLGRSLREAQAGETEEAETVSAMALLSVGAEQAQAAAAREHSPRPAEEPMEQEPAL

| Structure (SMILES) | IC50 [1] [nM] | IC50 [2] [nM] | IC50 [3] [nM] | IC50 [4] [nM] | IC50 [5] [nM] |
| --- | --- | --- | --- | --- | --- |
| FC(F)(F)c1nc(-c2ccc(CN(c3ccccn3)c3cnccn3)s2)no1 [Example V, N-(Pyridin-2-yl)-N-({5-[5-(trifluoromethyl)-1,2,4-oxadiazol-3-yl]thiophen-2-yl}methyl)pyrazin-2-amine] | > 10000 | ≤ 10000 | ≤ 10000 | ≤ 10000 | ≤ 10000 |
| CS(=O)(=O)c1nccc(N(Cc2ccc(-c3noc(C(F)(F)F)n3)s2)c2cnccn2)n1 [Example CE, 2-Methanesulfonyl-N-(pyrazin-2-yl)-N-({5-[5-(trifluoromethyl)-1,2,4-oxadiazol-3-yl]thiophen-2-yl}methyl)pyrimidin-4-amine] |  | ≤ 1000 | ≤ 1000 | ≤ 10000 | ≤ 10000 |
| FC(F)(F)c1nc(-c2ccc(CN(c3cncnc3)c3cnccn3)s2)no1 [Example CR, N-(Pyrazin-2-yl)-N-({5-[5-(trifluoromethyl)-1,2,4-oxadiazol-3-yl]thiophen-2-yl}methyl)pyrimidin-5-amine] | ≤ 10000 | ≤ 500 | ≤ 500 | ≤ 500 | ≤ 500 |
| FC(F)(F)c1nc(-c2ccc(CN(c3cnccn3)c3ccc(N4CCCC4)nn3)s2)no1 [Example DI, N-(Pyrazin-2-yl)-6-(pyrrolidin-1-yl)-N-({5-[5-(trifluoromethyl)-1,2,4-oxadiazol-3-yl]thiophen-2-yl}methyl)pyridazin-3-amine] | ≤ 10000 | ≤ 1000 | ≤ 1000 | ≤ 10000 | ≤ 1000 |
| FC(F)(F)c1ccc(N(Cc2ccc(-c3noc(C(F)(F)F)n3)s2)c2cnccn2)nn1 [Example DH, N-(Pyrazin-2-yl)-6-(trifluoromethyl)-N-({5-[5-(trifluoromethyl)-1,2,4-oxadiazol-3-yl]thiophen-2-yl}methyl)pyridazin-3-amine] | ≤ 10000 | ≤ 1000 | ≤ 10000 | ≤ 10000 | ≤ 1000 |

Results, then the compound that gave them:

| IC50 [1] [nM] | IC50 [2] [nM] | IC50 [3] [nM] | IC50 [4] [nM] | IC50 [5] [nM] | Structure (SMILES) |
| --- | --- | --- | --- | --- | --- |
| ≤ 10000 | ≤ 500 | ≤ 500 | ≤ 500 | ≤ 500 | FC(F)(F)c1nc(-c2ccc(CN(c3ccncn3)c3cnccn3)s2)no1 [Example BZ, N-(Pyrazin-2-yl)-N-({5-[5-(trifluoromethyl)-1,2,4-oxadiazol-3-yl]thiophen-2-yl}methyl)pyrimidin-4-amine] |
| ≤ 10000 | ≤ 500 | ≤ 1000 | ≤ 10000 | ≤ 500 | CS(=O)(=O)c1ccc(N(Cc2ccc(-c3noc(C(F)(F)F)n3)s2)c2cnccn2)nn1 [Example DL, 6-Methanesulfonyl-N-(pyrazin-2-yl)-N-({5-[5-(trifluoromethyl)-1,2,4-oxadiazol-3-yl]thiophen-2-yl}methyl)pyridazin-3-amine] |
